According to US5719145A, “Amidine derivatives and platelet aggregation inhibitor containing the same” (Mitsui Toatsu Chemicals, Inc., priority 1996, dated 1998):
Where a name gives a salt, the structure may show the parent alone.

Legend:
[1] = system: guinea pig platelets (platelet-rich plasma); test: Inhibition against platelet aggregation ability after oral administration in guinea pig; format: in vivo; settings: Cavia porcellus, 1 h, oral administration: 37 μmol/kg, blood collected after an hour, ADP 5 μM, read-out: Aggregation inhibiting rate (%)
Procedure: Experiment for inhibition against platelet aggregation ability after oral administration The specimen drug was dissolved or suspended at a concentration of 18.5 μmol/ml in a physiological saline containing 0.5% of Tween 80. […] A physiological saline containing 0.5% of Tween 80 was similarly administered as a control. […] The blood mixture was centrifuged at 800 r.p.m. for 20 minutes at room temperature to obtain PRP in the upper layer. The lower layer was further centrifuged at 3000 r.p.m. for 15 minutes to obtain PPP in upper layer. […] Platelet aggregation ability was measured according to the method for measuring in vitro platelet aggregation. […] HEMA TRACER 1 (manufactured by NKK Co.). After incubation of PRP at 37° C. for 2 minutes, a physiological saline (30 μl) was added. […] An inhibiting ratio was obtained by comparing the maximum aggregation of the specimen drug group with that of control.

[2] = system: guinea pig platelets (platelet-rich plasma); test: In vitro inhibition of platelet aggregation in guinea pig (ADP-induced, PRP); format: cell-based; settings: Cavia porcellus, ADP final concentration 5 μM, read-out: Platelet aggregation inhibitory activity in guinea pig, IC50
Procedure: In vitro experiment of platelet aggregation inhibition
1. Inhibition of platelet aggregation in Guinea pig
Blood of male guinea pig was collected with an injection syringe which contains 3.8 % sodium citrate as an anticoagulant in a ratio of 1 volume to 9 volumes of the blood. Successively, the collected blood mixture was subjected to centrifugation at 120×g for 15 minutes at room temperature to obtain platelet-rich plasma (PRP). An aliquot of PRP was further subjected to centrifugation at 1,200×g for 15 minutes to obtain platelet-poor plasma (PPP). Numbers of the platelet in PRP were measured with an automatic platelet counter: Sysmex PL-100 (manufactured by Toa Iyodenshi Co.) and PRP was diluted with PPP so as to adjust a platelet concentration to be about 300,000 particles/ μl. Platelet aggregation was measured by the following procedure with a 6 channel aggregometer: HEMA TRACER 1 (manufactured by NKK Co.).
After incubation of 240 μl of PRP at 37° C. for 2 minutes, 30 μl of the solvent of specimen as a control or of the specimen in various concentrations was added to PRP. Further 2 minutes later, 30 μl of adenosine diphosphate (final concentration: 5μM) was added to induce platelet aggregation. An inhibition percentage was obtained by comparing the maximum aggregation of the specimen drug group with that of control. […]

C#CCNC(=N)c1ccc(C(=O)Nc2ccc3c(c2)CC(CC(=O)OCC)CC3)cc1 (single isomer, unassigned) [Example 45, ethyl (-)-7-[[4-(N^2-propargylamidino)benzoyl]amino]-1,2,3,4-tetrahydronaphthalene-2-acetate hydrochloride]
inhibition at 37 µmol/kg [1]: > 90%

CCOC(=O)CC1CCc2ccc(NC(=O)c3ccc(C(=N)N4CCOCC4)cc3)cc2C1 (single isomer, unassigned) [Example 47, ethyl (-)-7-[[4-(morpholinoiminomethyl)benzoyl]amino]-1,2,3,4-tetrahydronaphthalene-2-acetate hydrochloride]
inhibition at 37 µmol/kg [1]: > 90%

C#CCNC(=N)c1ccc(C(=O)Nc2ccc3c(c2)CC(CC(=O)OCC)CO3)cc1 (single isomer, unassigned) [Example 49, ethyl (-)-6-[[4-(N^2-propargylamidino)benzoyl]amino]chroman-3-acetate hydrochloride]
inhibition at 37 µmol/kg [1]: > 90%

CCOC(=O)CC1COc2ccc(NC(=O)c3ccc(C(=N)N4CCOCC4)cc3)cc2C1 (single isomer, unassigned) [Example 51, hydrochloride]
inhibition at 37 µmol/kg [1]: > 90%

CCOC(=O)CC1CCc2ccc(NC(=O)c3ccc(C(=N)N4CCOCC4)cc3)cc2C1 (stereo not drawn) [Example 1, ethyl 7-[[4-(morpholinoiminomethyl)benzoyl]amino]-1,2,3,4-tetrahydronaphthalene-2-acetate hydrochloride]
inhibition at 37 µmol/kg [1]: > 90% | IC50 [2]: 180 nM

CCOC(=O)CC1COc2ccc(NC(=O)c3ccc(C(=N)N4CCOCC4)cc3)cc2C1 (stereo not drawn) [Example 4, ethyl 6-[[4-(morpholinoiminomethyl)benzoyl]amino]chroman-3-acetate hydrochloride]
inhibition at 37 µmol/kg [1]: > 90% | IC50 [2]: 120 nM

CCOC(=O)CC1COc2cc(NC(=O)c3ccc(C(=N)N4CCOCC4)cc3)ccc2C1 (stereo not drawn) [Example 8, ethyl 7-[[4-(morpholinoiminomethyl)benzoyl]amino]chroman-3-acetate hydrochloride]
inhibition at 37 µmol/kg [1]: > 90%

CCOC(=O)CC1CCc2ccc(NC(=O)c3ccc(C(=N)N4CCSCC4)cc3)cc2C1 (stereo not drawn) [Example 12, ethyl 7-[[4-(thiomorpholinoiminomethyl)benzoyl]amino]-1,2,3,4-tetrahydronaphthalene-2-acetate hydrochloride]
inhibition at 37 µmol/kg [1]: > 90%

CCOC(=O)CC1CCc2ccc(NC(=O)c3ccc(C(=N)N4CCN(C)CC4)cc3)cc2C1 (stereo not drawn) [Example 14, ethyl 7-[[4-(4-methylpiperazinoiminomethyl)benzoyl]amino]-1,2,3,4-tetrahydronaphthalene-2-acetate dihydrochloride]
inhibition at 37 µmol/kg [1]: > 90% | IC50 [2]: 66 nM

CCOC(=O)CC1CCc2ccc(NC(=O)c3ccc(C(=N)N4CCCCC4)cc3)cc2C1 (stereo not drawn) [Example 17, ethyl 7-[[4-(piperidinoiminomethyl)benzoyl]amino]-1,2,3,4-tetrahydronaphthalene-2-acetate hydrochloride]
inhibition at 37 µmol/kg [1]: > 90% | IC50 [2]: 270 nM

C#CCN=C(N)c1ccc(C(=O)Nc2ccc3c(c2)CC(CC(=O)OCC)CC3)cc1 (stereo not drawn) [Example 24, ethyl 7-[[4-(N^2-propargylamidino)benzoyl]amino]-1,2,3,4-tetrahydronaphthalene-2-acetate]
inhibition at 37 µmol/kg [1]: > 90%

CCOC(=O)CC1CCc2ccc(NC(=O)c3ccc(C(=N)NCc4ccco4)cc3)cc2C1 (stereo not drawn) [Example 29, ethyl 7-[[4-[N^2-(2-furfuryl)amidino]benzoyl]amino]-1,2,3,4-tetrahydronaphthalene-2-acetate hydrochloride]
inhibition at 37 µmol/kg [1]: > 90%

C#CCN(C)C(=N)c1ccc(C(=O)Nc2ccc3c(c2)CC(CC(=O)OCC)CC3)cc1 (stereo not drawn) [Example 34, ethyl 7-[[4-(N^1-methyl-N^2-propargylamidino)benzoyl]amino]-1,2,3,4-tetrahydronaphthalene-2-acetate hydrochloride]
inhibition at 37 µmol/kg [1]: > 90%

CCOC(=O)CC1CCc2ccc(NC(=O)c3ccc(C(=N)NCc4ccccn4)cc3)cc2C1 (stereo not drawn) [Example 38, ethyl 7-[[4-[N^2-(2-picolyl)amidino]benzoyl]amino]-1,2,3,4-tetrahydronaphthalene-2-acetatedihydrochloride]
inhibition at 37 µmol/kg [1]: > 90%

N=C(NCc1ccccn1)c1ccc(C(=O)Nc2ccc3c(c2)CC(CC(=O)O)CC3)cc1 (stereo not drawn) [Example 39, 7-[[4-[N^2-(2-picolyl)amidino]benzoyl]amino]-1,2,3,4-tetrahydronaphthalene-2-acetic acid dihydrochloride]
IC50 [2]: 140 nM

CCOC(=O)CC1CCc2ccc(NC(=O)c3ccc(C(=N)NCc4ccncc4)cc3)cc2C1 (stereo not drawn) [Example 41, ethyl 7-[[4-[N^2-(4-picolyl)amidino]benzoyl]amino]-1,2,3,4-tetrahydronaphthalene-2-acetatedihydrochloride]
IC50 [2]: 120 nM

CCOC(=O)CC1CCc2ccc(NC(=O)c3ccc(C(=N)NCCc4ccncc4)cc3)cc2C1 (stereo not drawn) [Example 42, ethyl 7-[[4-[N^2-[2-(4-pyridyl)ethyl]amidino]benzoyl]amino]-1,2,3,4-tetrahydronaphthalene-2-acetate dihydrochloride]
IC50 [2]: 130 nM

CCOC(=O)CC1CCc2ccc(NC(=O)c3ccc(C(=N)N4CCN(c5ccccc5)CC4)cc3)cc2C1 (stereo not drawn) [Example 43, dihydrochloride]
IC50 [2]: 140 nM

CCOC(=O)CC1CCc2ccc(NC(=O)c3ccc(C(=N)N4CCN(c5ccccn5)CC4)cc3)cc2C1 (stereo not drawn) [Example 44, trihydrochloride]
IC50 [2]: 88 nM

N=C(N)c1ccc(C(=O)Nc2ccc3c(c2)CC(CC(=O)O)CC3)cc1 (stereo not drawn) [Ref. Example 2, 7-[(4-amidinobenzoyl)amino]-1,2,3,4-tetrahydronaphthalene-2-acetic acid hydrochloride, reference compound]
IC50 [2]: 370 nM

N=C(N)c1ccc(C(=O)Nc2ccc3c(c2)CN(CC(=O)O)CC3)cc1 [Ref. Example 6, 7-[(4-amidinobenzoyl)amino]-1,2,3,4-tetrahydroisoquinoline-2-acetic acid dihydrochloride, reference compound]
IC50 [2]: 6600 nM

CCOC(=O)CC1CCc2ccc(NC(=O)c3ccc(C(=N)N)cc3)cc2C1 (stereo not drawn) [Reference Example 1, ethyl 7-[(4-amidinobenzoyl)amino]-1,2,3,4-tetrahydronaphthalene-2-acetate hydrochloride, reference compound]
inhibition at 37 µmol/kg [1]: 41%

CCOC(=O)CC1COc2ccc(NC(=O)c3ccc(C(=N)N)cc3)cc2C1 (stereo not drawn) [Reference Example 3, ethyl 6-[(4-amidinobenzoyl)amino]chroman-3-acetate hydrochloride, reference compound]
inhibition at 37 µmol/kg [1]: 39%

CCOC(=O)CC1COc2cc(NC(=O)c3ccc(C(=N)N)cc3)ccc2C1 (stereo not drawn) [Reference Example 7, ethyl 7-[(4-amidinobenzoyl)amino]chroman-3-acetate hydrochloride, reference compound]
inhibition at 37 µmol/kg [1]: 24%

CCCCOC(=O)N=C(N)c1ccc(C(=O)Nc2ccc3c(c2)CC(CC(=O)OCC)CC3)cc1 (stereo not drawn) [Reference Example 10, ethyl 7-[[4-[N^1-(n-butoxycarbonyl)amidino]benzoyl]amino]-1,2,3,4-tetrahydronaphthalene-2-acetate, reference compound]
inhibition at 37 µmol/kg [1]: 59%

CCOC(=O)CN1CCc2ccc(NC(=O)c3ccc(C(=N)N)cc3)cc2C1 [Reference example 5, ethyl 7-[(4-amidinobenzoyl)amino]-1,2,3,4-tetrahydroisoquinoline-2-acetate dihydrochloride, reference compound]
inhibition at 37 µmol/kg [1]: 10%
